Test results: ChEMBL document CHEMBL5291721, “A preclinical secondary pharmacology resource illuminates target-adverse drug reaction associations of marketed drugs” (Nat Commun, 2023)

Experiments:
[1] = target: Neuronal acetylcholine receptor subunit alpha-4 (Homo sapiens, UniProt P43681)
Histamine H3 receptor = Histamine H3 receptor (Homo sapiens, UniProt Q9Y5N1)
Adenosine receptor A1 = target: T1, Adenosine receptor A1 (Homo sapiens, UniProt P30542)
T1 sequence (P30542 whole entry): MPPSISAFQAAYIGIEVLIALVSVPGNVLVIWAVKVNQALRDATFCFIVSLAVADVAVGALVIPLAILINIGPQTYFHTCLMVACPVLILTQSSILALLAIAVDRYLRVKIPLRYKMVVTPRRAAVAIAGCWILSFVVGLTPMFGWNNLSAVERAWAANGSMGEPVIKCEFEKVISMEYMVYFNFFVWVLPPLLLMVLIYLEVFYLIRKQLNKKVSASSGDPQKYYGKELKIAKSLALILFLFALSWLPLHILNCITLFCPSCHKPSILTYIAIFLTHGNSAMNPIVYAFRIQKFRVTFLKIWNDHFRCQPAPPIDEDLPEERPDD

[2] = target: T2, 5-hydroxytryptamine receptor 3A (Homo sapiens, UniProt P46098); format: functional
T2 sequence (P46098 whole entry): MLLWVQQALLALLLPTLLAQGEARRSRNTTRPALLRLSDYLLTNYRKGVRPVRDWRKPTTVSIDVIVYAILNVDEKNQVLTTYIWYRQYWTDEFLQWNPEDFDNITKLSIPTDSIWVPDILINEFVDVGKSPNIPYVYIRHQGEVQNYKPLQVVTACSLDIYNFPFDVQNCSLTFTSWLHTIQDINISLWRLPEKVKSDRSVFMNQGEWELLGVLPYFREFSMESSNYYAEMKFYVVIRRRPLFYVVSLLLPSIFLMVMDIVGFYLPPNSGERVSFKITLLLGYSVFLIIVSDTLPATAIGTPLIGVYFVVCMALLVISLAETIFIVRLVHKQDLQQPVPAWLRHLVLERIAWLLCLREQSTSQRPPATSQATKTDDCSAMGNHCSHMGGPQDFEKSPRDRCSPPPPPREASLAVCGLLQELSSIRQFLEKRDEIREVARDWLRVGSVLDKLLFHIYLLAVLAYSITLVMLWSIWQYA

[3] = target: T3, Alpha-2B adrenergic receptor (Homo sapiens, UniProt P18089)
T3 sequence (P18089 whole entry): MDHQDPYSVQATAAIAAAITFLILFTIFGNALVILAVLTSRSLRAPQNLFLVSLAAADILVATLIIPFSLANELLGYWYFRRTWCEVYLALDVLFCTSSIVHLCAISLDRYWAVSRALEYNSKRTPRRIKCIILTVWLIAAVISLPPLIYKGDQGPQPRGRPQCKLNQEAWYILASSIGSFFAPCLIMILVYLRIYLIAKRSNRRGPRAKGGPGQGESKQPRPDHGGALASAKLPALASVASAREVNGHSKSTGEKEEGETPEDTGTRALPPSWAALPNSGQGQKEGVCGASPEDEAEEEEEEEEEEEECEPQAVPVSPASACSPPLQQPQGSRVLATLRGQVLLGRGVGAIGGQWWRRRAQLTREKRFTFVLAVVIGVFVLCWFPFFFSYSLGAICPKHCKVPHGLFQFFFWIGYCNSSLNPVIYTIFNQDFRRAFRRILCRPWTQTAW

Motilin receptor = Motilin receptor (Homo sapiens, UniProt O43193)
Motilin receptor, sequence (O43193 whole entry): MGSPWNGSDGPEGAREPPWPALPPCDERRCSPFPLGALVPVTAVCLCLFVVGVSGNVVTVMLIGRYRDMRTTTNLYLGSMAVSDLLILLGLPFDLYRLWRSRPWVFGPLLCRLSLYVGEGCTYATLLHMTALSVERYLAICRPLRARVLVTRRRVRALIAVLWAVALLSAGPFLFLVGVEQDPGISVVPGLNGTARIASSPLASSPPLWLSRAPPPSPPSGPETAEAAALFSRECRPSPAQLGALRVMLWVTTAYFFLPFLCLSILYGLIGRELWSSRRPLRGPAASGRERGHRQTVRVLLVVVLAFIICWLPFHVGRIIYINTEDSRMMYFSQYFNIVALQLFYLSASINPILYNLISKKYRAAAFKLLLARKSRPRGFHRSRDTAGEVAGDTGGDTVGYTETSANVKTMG

[4] = target: Delta-type opioid receptor (Homo sapiens, UniProt P41143)
Delta-type opioid receptor, sequence (P41143 whole entry): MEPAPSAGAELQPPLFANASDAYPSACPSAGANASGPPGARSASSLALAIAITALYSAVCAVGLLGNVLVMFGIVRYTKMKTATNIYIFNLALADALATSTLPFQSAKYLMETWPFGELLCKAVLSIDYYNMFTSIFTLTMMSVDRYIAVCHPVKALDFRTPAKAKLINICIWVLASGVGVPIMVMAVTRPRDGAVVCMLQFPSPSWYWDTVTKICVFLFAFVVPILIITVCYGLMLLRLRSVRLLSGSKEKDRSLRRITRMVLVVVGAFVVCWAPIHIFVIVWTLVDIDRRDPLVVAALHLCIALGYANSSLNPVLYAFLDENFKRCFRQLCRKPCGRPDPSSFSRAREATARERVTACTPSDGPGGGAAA

D(3) dopamine receptor = D(3) dopamine receptor (Homo sapiens, UniProt P35462)
D(3) dopamine receptor, sequence (P35462 whole entry): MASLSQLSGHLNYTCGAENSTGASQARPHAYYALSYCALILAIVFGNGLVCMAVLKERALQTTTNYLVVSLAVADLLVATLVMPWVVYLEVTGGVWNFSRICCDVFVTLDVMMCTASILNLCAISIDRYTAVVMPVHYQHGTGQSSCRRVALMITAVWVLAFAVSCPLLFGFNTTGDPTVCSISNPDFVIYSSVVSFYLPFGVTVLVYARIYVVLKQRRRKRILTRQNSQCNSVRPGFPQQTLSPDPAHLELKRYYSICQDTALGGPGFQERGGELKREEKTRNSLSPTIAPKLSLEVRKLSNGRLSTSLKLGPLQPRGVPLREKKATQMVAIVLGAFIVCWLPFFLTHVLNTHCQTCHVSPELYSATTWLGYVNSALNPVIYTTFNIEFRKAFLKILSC

[5] = target: Muscarinic acetylcholine receptor M3 (Homo sapiens, UniProt P20309)
Muscarinic acetylcholine receptor M3, sequence (P20309 whole entry): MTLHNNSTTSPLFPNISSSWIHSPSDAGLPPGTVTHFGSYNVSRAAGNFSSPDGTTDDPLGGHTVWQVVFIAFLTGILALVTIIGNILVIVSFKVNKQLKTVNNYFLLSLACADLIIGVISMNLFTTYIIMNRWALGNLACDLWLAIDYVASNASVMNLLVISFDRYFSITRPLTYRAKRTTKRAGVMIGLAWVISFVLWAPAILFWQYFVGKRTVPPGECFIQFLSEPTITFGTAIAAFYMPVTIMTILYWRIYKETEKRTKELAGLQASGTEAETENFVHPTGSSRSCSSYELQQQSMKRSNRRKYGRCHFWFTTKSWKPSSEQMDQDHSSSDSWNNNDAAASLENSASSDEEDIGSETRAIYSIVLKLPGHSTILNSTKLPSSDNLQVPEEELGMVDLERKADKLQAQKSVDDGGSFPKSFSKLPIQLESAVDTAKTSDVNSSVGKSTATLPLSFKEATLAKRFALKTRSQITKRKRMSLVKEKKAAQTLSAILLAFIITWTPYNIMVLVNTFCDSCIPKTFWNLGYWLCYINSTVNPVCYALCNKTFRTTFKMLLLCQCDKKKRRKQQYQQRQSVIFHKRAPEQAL

[6] = target: T4, Amine oxidase [flavin-containing] A (Homo sapiens, UniProt P21397); format: functional
T4 sequence (P21397 whole entry): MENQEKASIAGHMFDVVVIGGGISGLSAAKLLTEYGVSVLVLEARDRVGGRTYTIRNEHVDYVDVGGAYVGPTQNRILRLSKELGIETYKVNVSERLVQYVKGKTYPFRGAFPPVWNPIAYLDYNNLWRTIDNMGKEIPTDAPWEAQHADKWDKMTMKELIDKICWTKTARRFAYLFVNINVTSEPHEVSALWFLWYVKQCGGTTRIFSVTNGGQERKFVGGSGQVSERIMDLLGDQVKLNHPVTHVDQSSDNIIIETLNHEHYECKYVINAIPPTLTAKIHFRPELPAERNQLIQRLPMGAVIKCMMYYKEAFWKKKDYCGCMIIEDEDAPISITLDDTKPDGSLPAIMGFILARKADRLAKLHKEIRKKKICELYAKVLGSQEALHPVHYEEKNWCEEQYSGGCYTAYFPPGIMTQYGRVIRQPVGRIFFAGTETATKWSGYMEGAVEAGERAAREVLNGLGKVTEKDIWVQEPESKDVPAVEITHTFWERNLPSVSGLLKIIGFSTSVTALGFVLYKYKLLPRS

Estrogen receptor = target: T5, Estrogen receptor (Homo sapiens, UniProt P03372)
T5 sequence (P03372 whole entry): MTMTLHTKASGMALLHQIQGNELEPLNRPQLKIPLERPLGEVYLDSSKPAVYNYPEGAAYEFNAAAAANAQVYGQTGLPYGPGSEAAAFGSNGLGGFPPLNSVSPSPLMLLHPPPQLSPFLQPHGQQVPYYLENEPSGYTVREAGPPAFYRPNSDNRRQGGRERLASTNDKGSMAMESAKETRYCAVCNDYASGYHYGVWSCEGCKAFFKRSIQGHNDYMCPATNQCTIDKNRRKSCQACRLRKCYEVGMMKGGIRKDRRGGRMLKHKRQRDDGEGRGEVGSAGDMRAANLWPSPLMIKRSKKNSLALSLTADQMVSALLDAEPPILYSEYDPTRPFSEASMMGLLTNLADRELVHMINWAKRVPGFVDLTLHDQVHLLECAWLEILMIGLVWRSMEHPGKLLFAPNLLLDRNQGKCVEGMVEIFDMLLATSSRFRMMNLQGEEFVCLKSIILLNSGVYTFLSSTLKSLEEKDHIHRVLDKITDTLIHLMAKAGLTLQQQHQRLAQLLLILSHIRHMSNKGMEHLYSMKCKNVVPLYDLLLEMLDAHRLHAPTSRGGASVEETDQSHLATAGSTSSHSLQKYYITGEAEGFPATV
Further: assay procedure not described here.

Neuronal acetylcholine receptor subunit alpha-4, sequence (P43681 whole entry): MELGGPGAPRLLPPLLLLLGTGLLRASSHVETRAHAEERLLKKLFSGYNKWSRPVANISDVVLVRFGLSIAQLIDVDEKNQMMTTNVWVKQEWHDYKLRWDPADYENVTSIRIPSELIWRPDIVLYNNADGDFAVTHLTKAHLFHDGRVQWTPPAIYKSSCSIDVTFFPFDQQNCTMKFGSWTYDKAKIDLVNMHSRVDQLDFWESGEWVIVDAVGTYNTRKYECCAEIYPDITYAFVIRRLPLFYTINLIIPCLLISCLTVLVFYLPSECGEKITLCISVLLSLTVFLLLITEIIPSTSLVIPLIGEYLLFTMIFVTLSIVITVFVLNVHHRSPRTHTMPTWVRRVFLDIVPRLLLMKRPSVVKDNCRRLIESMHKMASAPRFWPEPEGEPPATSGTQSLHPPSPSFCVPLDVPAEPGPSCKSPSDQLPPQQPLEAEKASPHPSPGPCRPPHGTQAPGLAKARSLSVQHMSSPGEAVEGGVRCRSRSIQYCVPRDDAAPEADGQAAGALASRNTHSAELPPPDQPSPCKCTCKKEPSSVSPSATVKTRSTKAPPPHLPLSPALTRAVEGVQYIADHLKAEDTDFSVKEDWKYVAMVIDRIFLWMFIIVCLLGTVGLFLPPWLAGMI
Histamine H3 receptor, sequence (Q9Y5N1 whole entry): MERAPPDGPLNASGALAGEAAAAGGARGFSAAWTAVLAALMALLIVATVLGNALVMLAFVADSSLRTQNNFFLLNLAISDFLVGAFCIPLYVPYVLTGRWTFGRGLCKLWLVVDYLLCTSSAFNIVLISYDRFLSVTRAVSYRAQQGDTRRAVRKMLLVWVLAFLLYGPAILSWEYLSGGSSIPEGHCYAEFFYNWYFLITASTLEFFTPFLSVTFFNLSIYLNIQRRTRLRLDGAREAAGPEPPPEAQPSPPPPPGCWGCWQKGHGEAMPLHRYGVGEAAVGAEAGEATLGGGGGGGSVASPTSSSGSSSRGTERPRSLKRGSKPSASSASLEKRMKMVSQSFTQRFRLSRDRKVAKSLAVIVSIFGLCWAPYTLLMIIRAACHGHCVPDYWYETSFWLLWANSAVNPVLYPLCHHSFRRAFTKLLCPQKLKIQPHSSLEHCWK

Compound	AC50 [1] [µM]	AC50 (Histamine H3 receptor) [µM]	AC50 (Adenosine receptor A1) [µM]	AC50 [2] [µM]	AC50 [3] [µM]	AC50 (Motilin receptor) [µM]	AC50 [4] [µM]	AC50 (D(3) dopamine receptor) [µM]	AC50 [5] [µM]	AC50 [6] [µM]	AC50 (Estrogen receptor) [µM]
O=C(O)c1ccccc1Nc1cccc(C(F)(F)F)c1 [FLUFENAMIC ACID]	> 10	> 10	> 30	> 30	> 10	> 10	> 30	3.5	0.92	> 10	> 30
O=C(O)c1ccccc1OP(=O)(O)O [FOSFOSAL]	> 30	> 30	> 30	> 30	> 30	> 30	> 30	> 30	> 30	> 30	> 30
C#C[C@]1(O)CC[C@H]2[C@@H]3CCC4=CC(=O)CCC4=C3C=C[C@@]21CC [GESTRINONE]	> 30	> 30	> 30	> 30	> 30	> 30	> 30	> 30	> 30	> 30	6.1
CCCCCCOC(=O)CCC(=O)CN [HEXAMINOLEVULINATE]	> 30	> 30	> 30	> 30	> 30	> 30	> 30	> 30	> 30	> 30	> 30
CCCC[C@H](C)C[C@H](O)/C=C/[C@H]1[C@H](O)CC(=O)[C@@H]1CCCC/C=C/C(=O)O [LIMAPROST]	> 30	> 30	> 30	> 30	> 30	> 30	> 30	> 30	> 30	> 30	> 30
CC#CCn1c(N2CCC[C@@H](N)C2)nc2c1c(=O)n(Cc1nc(C)c3ccccc3n1)c(=O)n2C [LINAGLIPTIN]	> 10	> 10	> 30	> 30	> 10	> 10	> 10	> 30	6.5	> 10	> 30
Cc1ccc(NC(=O)C2(c3ccc4c(c3)OC(F)(F)O4)CC2)nc1-c1cccc(C(=O)O)c1 [LUMACAFTOR]	> 30	> 30	> 30	> 30	> 30	> 30	> 30	> 30	> 30	> 30	> 30
CN(c1nccc(=O)[nH]1)C1CCN(c2nc3ccccc3n2Cc2ccc(F)cc2)CC1 [MIZOLASTINE]	> 30	> 30	> 30	> 30	> 30	> 30	> 30	> 30	> 30	> 30	> 30
CCOC(=O)Nc1ccc2c(c1)N(C(=O)CCN1CCOCC1)c1ccccc1S2 [MORICIZINE]	> 30	> 30	> 30	> 30	> 30	> 30	> 30	> 30	> 30	> 30	> 30
O=C1CN=C(c2ccccc2)c2cc(Cl)ccc2N1 [NORDAZEPAM]	> 10	> 10	> 30	> 10	> 10	> 10	> 10	> 10	> 10	> 10	> 30
CC(CCc1ccccc1)NC(C)C(O)c1ccc(O)cc1 (stereo unspecified) [NYLIDRIN]	> 10	> 10	> 30	> 10	0.73	> 10	> 10	1.3	> 10	> 10	> 30
CC1(C)C(C=C(Cl)Cl)C1C(=O)OCc1cccc(Oc2ccccc2)c1 (stereo unspecified) [PERMETHRIN]	> 10	> 10	> 10	> 30	> 10	> 10	> 30	> 30	> 30	> 10	> 30
CC(=O)c1ccc2c(c1)N(CCCN1CCC(CCO)CC1)c1ccccc1S2 [PIPERACETAZINE]	> 30	> 30	> 30	> 30	0.068	> 30	> 30	0.017	9.5	> 30	> 30
Cc1ccc(=O)n(-c2ccccc2)c1 [PIRFENIDONE]	> 30	> 30	> 30	> 30	> 30	> 30	> 30	> 30	> 30	> 30	> 30
NC(=O)CCC/N=C(\c1ccc(Cl)cc1)c1cc(F)ccc1O [PROGABIDE]	> 10	> 10	> 10	> 30	> 10	> 10	> 30	> 30	> 30	> 10	> 10
CCCOC(C(=O)OC1CCN(C)CC1)(c1ccccc1)c1ccccc1 [PROPIVERINE]	> 30	> 30	> 30	> 30	> 30	15	> 30	2.5	0.83	> 30	> 30
